Laboratory results as given in article doi:10.1101/2022.10.27.513961v1 (bioRxiv, 2022).

Assays:
Format in all cases: cell-based
WM164 cells [1] = assay: Cell surface charge, zeta potential; details: WM164 PDRCs (105 days with dabrafenib), mean ± SEM, n=3
HT144 cells [2] = assay: Microscopy during long-term treatment; details: HT144, 100 nM dabrafenib
HT144 cells [3] = assay: Cell surface charge, zeta potential; details: mean ± SEM, n=3
WM164 cells [4] = assay: Lipidome analysis, shotgun tandem MS of lipid extracts
WM164 cells [5] = assay: Microscopy during long-term treatment; details: WM164, 100 nM dabrafenib
WM164 cells [6] = assay: Co-treatment of dabrafenib with peptide, resazurin assay; details: drug-naïve WM164, drug (50 nM) or peptide (at IC50) added alone, 72 h
HT144 cells [7] = assay: Cytotoxicity, resazurin assay; details: for IC50: Homo sapiens
WM164 cells [8] = assay: Cytotoxicity, resazurin assay; details: Homo sapiens, WM164, Parental WM164 cells
HT144 cells [9] = assay: Lipidome analysis, shotgun tandem MS of lipid extracts
[10] = WM164, 15-30 days of dabrafenib
[11] = WM164, dabrafenib 30 days vs untreated
[12] = HT144, dabrafenib 30 days vs untreated

Compound: CC(C)(C)c1nc(-c2cccc(NS(=O)(=O)c3c(F)cccc3F)c2F)c(-c2ccnc(N)n2)s1 [dabrafenib, reference compound]
- surface charge, zeta potential (WM164 cells [1]): −20.18 ± 0.95 mV
- time to death of drug-naïve cells (HT144 cells [2]): ≤ 48 h
- surface charge, zeta potential (HT144 cells [3]; HT144 DTPs (30 days with dabrafenib)): −15.94 ± 0.59 mV
- surface charge, zeta potential (HT144 cells [3]; HT144 PDRCs (105 days with dabrafenib)): −17.7 ± 0.30 mV
- SM proportion (WM164 cells [4]; WM164, 100 nM dabrafenib 30 days (untreated 3)): 11 mol%
- fold increase of PI 38:4 (WM164 cells [4]; [10]): 3 fold
- fold increase of SM 36:1 (WM164 cells [4]; [10]): 3 fold
- SM 36:1 abundance (WM164 cells [4]; WM164, 15-30 days of dabrafenib (before 8)): 26 mol%
- PI 38:4 abundance (WM164 cells [4]; WM164, 15-30 days of dabrafenib (before 18)): 55 mol%
- negatively charged lipids (PS+PI) proportion (WM164 cells [4]; WM164, dabrafenib 30 days (untreated 19)): 23 mol%
- zwitterionic PE and PC proportion (WM164 cells [4]; WM164, dabrafenib 30 days (untreated 78)): 66 mol%
- fold decrease in PE and PC (WM164 cells [4]; [11]): 0.8 fold
- fold increase in PS+PI (WM164 cells [4]; [11]): 1.2 fold
- fold increase in SM (WM164 cells [4]; [11]): 3.7 fold
- time to death of drug-naïve cells (WM164 cells [5]): ≤ 48 h
- cell death (WM164 cells [6]): ~ 50%
- IC50 (HT144 cells [7]; HT-144, 72 h, HT144 PDRC (100 nM), resazurin three days after drug): > 1000 nM
- IC50 (HT144 cells [7]; HT-144, Parental HT144 cells): 22 nM
- toxicity (HT144 cells [7]; PDR HT144 cells, at 1µM): ~10%
- IC50 (WM164 cells [8]): 44 nM
- SM proportion (HT144 cells [9]; HT144, dabrafenib 30 days (untreated 5)): 9 mol%
- PE proportion (HT144 cells [9]; HT144, dabrafenib 30 days (untreated 15)): 20 mol%
- PC proportion (HT144 cells [9]; HT144, dabrafenib 30 days (untreated 59)): 51 mol%
- fold decrease in PC (HT144 cells [9]; [12]): 0.9 fold
- fold increase in PE (HT144 cells [9]; [12]): 1.3 fold
- fold increase in SM (HT144 cells [9]; [12]): 1.8 fold
